What was measured:
12_J03-18 = test: fluorogenic glycosidase kinetics; format: biochemical, uncultured bacterium (Castor canadensis fecal metagenome)
Description: fluorogenic glycosidase kinetics on 12_J03-18

12_H03-13 = test: fluorogenic glycosidase kinetics; format: biochemical, uncultured bacterium (Castor canadensis fecal metagenome); settings: GH43 domain site
Description: fluorogenic glycosidase kinetics on 12_H03-13

- Km (12_J03-18): 480 ± 60 µM
- Km (12_H03-13): 190 ± 30 µM
- Km (12_H03-13; GH8 catalytic acid residue mutated): 140 ± 10 µM
SMILES: Cc1cc(=O)oc2cc(O[C@@H]3OC[C@@H](O)[C@H](O)[C@H]3O)c(Cl)cc12 [6-chloro-4-methylumbelliferyl β-D-xyloside]
